Measured values reported in patent US7256187B2, “Rifamycin C-11 oxime derivatives effective against drug-resistant microbes” (Cumbre Pharmaceuticals Inc., priority 2004, dated 2007).
≈ marks a conversion by molar mass, not a printed value.

Columns and labels:
Format in all cases: cell-based
[1] = system: Staphylococcus aureus ATCC29213; assay: MIC, microbroth dilution; details: Staphylococcus aureus ATCC29213, rifS; read-out: Antimicrobial activity (MIC)
[2] = system: Staphylococcus aureus ATCC29213 rpoB^D417Y; assay: microbe, parasite or virus in culture; details: Staphylococcus aureus ATCC29213 rpoB^D417Y, rifR; read-out: Antimicrobial activity (MIC)
Experimental: (§1) Representative compounds were assayed for antimicrobial activity as follows: Minimum Inhibitory Concentrations (“MICs”) were determined by the microbroth dilution method as per NCCLS guidelines (National Committee for Clinical Laboratory Standards. 2000. Methods for dilution antimicrobial susceptibility tests for bacteria that grow aerobically, 5th ed. M7-A5. National Committee for Clinical Laboratory Standards, Wayne, Pa.), except that all growth incubations were conducted at 37° C. Bacterial cultures were tested in the following bacteriological media: S. aureus, S. epidermidis, and E. coli in Cation-Adjusted Mueller-Hinton Broth, S. pneumoniae in THY Broth supplemented with 1 mg/mL catalase under 5% CO2 atmosphere, S. pyogenes in THY Broth, E. faecalis in BHI Broth, H. influenzae in BHI Broth supplemented with 0.75 μL of 1 mg/mL NAD and 150 μL of 1 mg/ml hematin per 5 mL, and M. smegmatis in Middlebrook Broth plus ADC Enrichment.
(§2) S. aureus ATCC 29213 RpoB^H418Y is a rifampin-resistant strain with a mutation in the RpoB gene of RNA polymerase. […] S. aureus EN1252a gyrA^S84L grlA^S80F is a quinolone-resistant strain due to double gene mutations of DNA gyrase and topoisomerase IV.

[3] = system: Staphylococcus aureus ATCC29213 rpoB^H418Y; assay: microbe, parasite or virus in culture; details: Staphylococcus aureus ATCC29213 rpoB^H418Y, rifR; read-out: Antimicrobial activity (MIC)
Experimental: as §1, §2

[4] = system: Staphylococcus aureus EN1252a gyrA^S84L grlA^S80F; assay: microbe, parasite or virus in culture; details: Staphylococcus aureus EN1252a gyrA^S84L grlA^S80F, cipR; read-out: Antimicrobial activity (MIC)
Experimental: as §1, §2

[5] = system: Staphylococcus epidermidis ATCC12228; assay: MIC, microbroth dilution; details: Staphylococcus epidermidis ATCC12228, rifS; read-out: Antimicrobial activity (MIC)
[6] = system: Streptococcus pneumoniae ATCC6303; assay: MIC, microbroth dilution; details: Streptococcus pneumoniae ATCC6303, rifS; read-out: Antimicrobial activity (MIC)
[7] = system: Streptococcus pyogenes ATCC19615; assay: MIC, microbroth dilution; details: Streptococcus pyogenes ATCC19615, rifS; read-out: Antimicrobial activity (MIC)
[8] = system: Enterococcus faecalis ATCC29212; assay: MIC, microbroth dilution; details: Enterococcus faecalis ATCC29212, rifS; read-out: Antimicrobial activity (MIC)
[9] = system: Haemophilus influenzae ATCC10211; assay: MIC, microbroth dilution; details: Haemophilus influenzae ATCC10211, rifS; read-out: Antimicrobial activity (MIC)
[10] = system: Escherichia coli ATCC25922; assay: MIC, microbroth dilution; details: Escherichia coli ATCC25922, rifS; read-out: Antimicrobial activity (MIC)
[11] = system: Mycobacterium smegmatis ATCC700084; assay: MIC, microbroth dilution; details: Mycolicibacterium smegmatis; Mycobacterium smegmatis ATCC700084, rifS; read-out: Antimicrobial activity (MIC)

SMILES	MIC [1] [µg/mL]	MIC [2] [µg/mL]	MIC [3] [µg/mL]	MIC [4] [µg/mL]	MIC [5] [µg/mL]	MIC [6] [µg/mL]	MIC [7] [µg/mL]	MIC [8] [µg/mL]	MIC [9] [µg/mL]	MIC [10] [µg/mL]	MIC [11] [µg/mL]
COc1c(N2CCN(/N=C/c3c4c(O)c5c(O)c(C)c6c(c5c3O)/C(=N/O)[C@@](C)(O/C=C/[C@H](OC)[C@@H](C)[C@@H](OC(C)=O)[C@H](C)[C@H](O)[C@H](C)[C@@H](O)[C@@H](C)/C=C/C=C(/C)C(=O)N4)O6)C(C)C2)c(F)cc2c(=O)c(C(=O)O)cn(C3CC3)c12 (mixture of isomers) [Example 40, (R/S)-3-[4-(3-Carboxy-1-cyclopropyl-6-fluoro-8-methoxy-4-oxo-1,4-dihydroquinolin-7-yl)-2-methyl-piperazin-1-yl-aminomethylenyl]-11-deoxy-11-hydroxyiminorifamycin SV]	0.004 to 0.5 (≈ 0.00359 to 0.449 µM)	0.25 to 32 (≈ 0.225 to 28.7 µM)	0.125 to 16 (≈ 0.112 to 14.4 µM)	0.004 to 0.5 (≈ 0.00359 to 0.449 µM)	0.0005 to 0.063 (≈ 0.000449 to 0.0566 µM)	0.0002 to 0.125 (≈ 0.00018 to 0.112 µM)	0.0005 to 0.063 (≈ 0.000449 to 0.0566 µM)	2 to 32 (≈ 1.8 to 28.7 µM)	0.03 to 2 (≈ 0.0269 to 1.8 µM)	0.125 to 8 (≈ 0.112 to 7.19 µM)	0.5 to 64 (≈ 0.449 to 57.5 µM)
CO[C@H]1/C=C/O[C@@]2(C)Oc3c(C)c(O)c4c(c3/C2=N/O)/C(=N/O)C=C(NC(=O)/C(C)=C\C=C\[C@H](C)[C@H](O)[C@@H](C)[C@@H](O)[C@@H](C)[C@H](OC(C)=O)[C@@H]1C)C4=O [Example 4, 4, 11-Dideoxy-4,11-dihydroxyiminorifamycin S]	0.004 to 0.5 (≈ 0.00551 to 0.689 µM)	0.25 to 32 (≈ 0.344 to 44.1 µM)	0.125 to 16 (≈ 0.172 to 22 µM)	0.004 to 0.5 (≈ 0.00551 to 0.689 µM)	0.0005 to 0.063 (≈ 0.000689 to 0.0868 µM)	0.0002 to 0.125 (≈ 0.000276 to 0.172 µM)	0.0005 to 0.063 (≈ 0.000689 to 0.0868 µM)	2 to 32 (≈ 2.76 to 44.1 µM)	0.03 to 2 (≈ 0.0413 to 2.76 µM)	0.125 to 8 (≈ 0.172 to 11 µM)	0.5 to 64 (≈ 0.689 to 88.2 µM)
CO/N=C1/c2c3c(C)c(O)c4c2/C(=N/OC)C=C(NC(=O)/C(C)=C\C=C\[C@H](C)[C@H](O)[C@@H](C)[C@@H](O)[C@@H](C)[C@H](OC(C)=O)[C@H](C)[C@@H](OC)/C=C/O[C@@]1(C)O3)C4=O [Example 5, 4, 11-Dideoxy-4, 11-dimethoxyiminorifamycin S]	0.004 to 0.5 (≈ 0.00531 to 0.663 µM)	0.25 to 32 (≈ 0.332 to 42.4 µM)	0.125 to 16 (≈ 0.166 to 21.2 µM)	0.004 to 0.5 (≈ 0.00531 to 0.663 µM)	0.0005 to 0.063 (≈ 0.000663 to 0.0836 µM)	0.0002 to 0.125 (≈ 0.000265 to 0.166 µM)	0.0005 to 0.063 (≈ 0.000663 to 0.0836 µM)	2 to 32 (≈ 2.65 to 42.4 µM)	0.03 to 2 (≈ 0.0398 to 2.65 µM)	0.125 to 8 (≈ 0.166 to 10.6 µM)	0.5 to 64 (≈ 0.663 to 84.9 µM)
CO[C@H]1/C=C/O[C@@]2(C)Oc3c(C)c(O)c4c(c3/C2=N/O)C(=O)C=C(NC(=O)/C(C)=C\C=C\[C@H](C)[C@H](O)[C@@H](C)[C@@H](O)[C@@H](C)[C@H](OC(C)=O)[C@@H]1C)C4=O [Example 7, 11-Deoxy-11-hydroxyiminorifamycin S]	0.004 to 0.5 (≈ 0.00563 to 0.703 µM)	0.25 to 32 (≈ 0.352 to 45 µM)	0.125 to 16 (≈ 0.176 to 22.5 µM)	0.004 to 0.5 (≈ 0.00563 to 0.703 µM)	0.0005 to 0.063 (≈ 0.000703 to 0.0886 µM)	0.0002 to 0.125 (≈ 0.000281 to 0.176 µM)	0.0005 to 0.063 (≈ 0.000703 to 0.0886 µM)	2 to 32 (≈ 2.81 to 45 µM)	0.03 to 2 (≈ 0.0422 to 2.81 µM)	0.125 to 8 (≈ 0.176 to 11.3 µM)	0.5 to 64 (≈ 0.703 to 90 µM)
CO[C@H]1/C=C/O[C@@]2(C)Oc3c(C)c(O)c4c(c3/C2=N/OC(=O)c2ccncc2)C(=O)C=C(NC(=O)/C(C)=C\C=C\[C@H](C)[C@H](O)[C@@H](C)[C@@H](O)[C@@H](C)[C@H](OC(C)=O)[C@@H]1C)C4=O [Example 8, 11-Deoxy-11-(4-pyridylcarboxy)iminorifamycin S]	0.004 to 0.5 (≈ 0.0049 to 0.613 µM)	0.25 to 32 (≈ 0.306 to 39.2 µM)	0.125 to 16 (≈ 0.153 to 19.6 µM)	0.004 to 0.5 (≈ 0.0049 to 0.613 µM)	0.0005 to 0.063 (≈ 0.000613 to 0.0772 µM)	0.0002 to 0.125 (≈ 0.000245 to 0.153 µM)	0.0005 to 0.063 (≈ 0.000613 to 0.0772 µM)	2 to 32 (≈ 2.45 to 39.2 µM)	0.03 to 2 (≈ 0.0368 to 2.45 µM)	0.125 to 8 (≈ 0.153 to 9.81 µM)	0.5 to 64 (≈ 0.613 to 78.4 µM)
CO[C@H]1/C=C/O[C@@]2(C)Oc3c(C)c(O)c4c(c3/C2=N/OC(C)=O)C(=O)C=C(NC(=O)/C(C)=C\C=C\[C@H](C)[C@H](O)[C@@H](C)[C@@H](O)[C@@H](C)[C@H](OC(C)=O)[C@@H]1C)C4=O [Example 9, 11-Deoxy-11-acetoxyiminorifamycin S]	0.004 to 0.5 (≈ 0.00531 to 0.664 µM)	0.25 to 32 (≈ 0.332 to 42.5 µM)	0.125 to 16 (≈ 0.166 to 21.3 µM)	0.004 to 0.5 (≈ 0.00531 to 0.664 µM)	0.0005 to 0.063 (≈ 0.000664 to 0.0837 µM)	0.0002 to 0.125 (≈ 0.000266 to 0.166 µM)	0.0005 to 0.063 (≈ 0.000664 to 0.0837 µM)	2 to 32 (≈ 2.66 to 42.5 µM)	0.03 to 2 (≈ 0.0399 to 2.66 µM)	0.125 to 8 (≈ 0.166 to 10.6 µM)	0.5 to 64 (≈ 0.664 to 85 µM)
COCCOCO/N=C1/c2c3c(C)c(O)c4c2C(=O)C=C(NC(=O)/C(C)=C\C=C\[C@H](C)[C@H](O)[C@@H](C)[C@@H](O)[C@@H](C)[C@H](OC(C)=O)[C@H](C)[C@@H](OC)/C=C/O[C@@]1(C)O3)C4=O [Example 10, 11-Deoxy-11-methoxyethoxymethoxyiminorifamycin S]	0.004 to 0.5 (≈ 0.00501 to 0.626 µM)	0.25 to 32 (≈ 0.313 to 40.1 µM)	0.125 to 16 (≈ 0.156 to 20 µM)	0.004 to 0.5 (≈ 0.00501 to 0.626 µM)	0.0005 to 0.063 (≈ 0.000626 to 0.0789 µM)	0.0002 to 0.125 (≈ 0.00025 to 0.156 µM)	0.0005 to 0.063 (≈ 0.000626 to 0.0789 µM)	2 to 32 (≈ 2.5 to 40.1 µM)	0.03 to 2 (≈ 0.0376 to 2.5 µM)	0.125 to 8 (≈ 0.156 to 10 µM)	0.5 to 64 (≈ 0.626 to 80.1 µM)
C=CCO/N=C1/c2c3c(C)c(O)c4c2C(=O)C=C(NC(=O)/C(C)=C\C=C\[C@H](C)[C@H](O)[C@@H](C)[C@@H](O)[C@@H](C)[C@H](OC(C)=O)[C@H](C)[C@@H](OC)/C=C/O[C@@]1(C)O3)C4=O [Example 11, 11-Deoxy-11-allyloxyiminorifamycin S]	0.004 to 0.5 (≈ 0.00533 to 0.666 µM)	0.25 to 32 (≈ 0.333 to 42.6 µM)	0.125 to 16 (≈ 0.166 to 21.3 µM)	0.004 to 0.5 (≈ 0.00533 to 0.666 µM)	0.0005 to 0.063 (≈ 0.000666 to 0.0839 µM)	0.0002 to 0.125 (≈ 0.000266 to 0.166 µM)	0.0005 to 0.063 (≈ 0.000666 to 0.0839 µM)	2 to 32 (≈ 2.66 to 42.6 µM)	0.03 to 2 (≈ 0.04 to 2.66 µM)	0.125 to 8 (≈ 0.166 to 10.7 µM)	0.5 to 64 (≈ 0.666 to 85.2 µM)
CO[C@H]1/C=C/O[C@@]2(C)Oc3c(C)c(O)c4c(c3/C2=N/OCCBr)C(=O)C=C(NC(=O)/C(C)=C\C=C\[C@H](C)[C@H](O)[C@@H](C)[C@@H](O)[C@@H](C)[C@H](OC(C)=O)[C@@H]1C)C4=O [Example 12, 11-Deoxy-11-(2-bromoethoxyimino)rifamycin S]	0.004 to 0.5 (≈ 0.00489 to 0.611 µM)	0.25 to 32 (≈ 0.306 to 39.1 µM)	0.125 to 16 (≈ 0.153 to 19.6 µM)	0.004 to 0.5 (≈ 0.00489 to 0.611 µM)	0.0005 to 0.063 (≈ 0.000611 to 0.077 µM)	0.0002 to 0.125 (≈ 0.000245 to 0.153 µM)	0.0005 to 0.063 (≈ 0.000611 to 0.077 µM)	2 to 32 (≈ 2.45 to 39.1 µM)	0.03 to 2 (≈ 0.0367 to 2.45 µM)	0.125 to 8 (≈ 0.153 to 9.78 µM)	0.5 to 64 (≈ 0.611 to 78.3 µM)
